Columns and labels:
[1] = test system: human peripheral blood mononuclear cells (PBMC); test: T-cell proliferation assay (BrdU ELISA), PBMC stimulated with anti-CD3 mAb + anti-CD28 mAb; type: cell-based; conditions: anti-CD3 mAb (0.1 μg/ml)+anti-CD28 mAb (1 μg/ml); for inhibition at 10 µM: Homo sapiens, PBMC
[2] = test system: human peripheral blood mononuclear cells (PBMC); test: T-cell proliferation assay (BrdU ELISA), PBMC stimulated with SEB; type: cell-based; conditions: SEB (0.1 μg/ml)
[3] = Example 1, 200000 cells/well, HC 10 μM, ASM 30 nM, BETA 300 nM
[4] = Example 2, 100000 cells/well, HC 10 μM, ASM 30 nM, BETA 300 nM
[5] = Example 3, 50000 cells/well, HC 10 μM, ASM 30 nM, BETA 300 nM
[6] = Example 13, 200000 cells/well, HC 10 μM, FK 30 nM, BETA 300 nM

## C[C@@H]1C[C@H]2[C@@H]3CCC4=CC(=O)C=C[C@]4(C)[C@@]3(F)[C@@H](O)C[C@]2(C)[C@@]1(O)C(=O)CO [DEX, dexamethasone]
[1]; Example 6, 200000 cells/well, DEX 300 nM, ASM 30 nM, BETA 300 nM
  Normalized OD (% STIM-C): 87.2 % STIM-C
[1]; Example 7, 100000 cells/well, DEX 300 nM, ASM 30 nM, BETA 300 nM
  Normalized OD (% STIM-C): 76.5 % STIM-C
[1]; Example 8, 50000 cells/well, DEX 300 nM, ASM 30 nM, BETA 300 nM
  Normalized OD (% STIM-C): 82.2 % STIM-C
[1]; Example 11, 100000 cells/well, DEX 300 nM, ASM 30 nM
  Normalized OD (% STIM-C): 76.3 % STIM-C
[1]; Example 15, 200000 cells/well, DEX 300 nM, FK 30 nM, BETA 300 nM
  Normalized OD (% STIM-C): 87.2 % STIM-C
[1]; Example 16, 100000 cells/well, DEX 300 nM, FK 30 nM, BETA 300 nM
  Normalized OD (% STIM-C): 76.5 % STIM-C
[1]; Example 17, 50000 cells/well, DEX 300 nM, FK 30 nM, BETA 300 nM
  Normalized OD (% STIM-C): 82.2 % STIM-C
[1]; Example 18, 100000 cells/well, DEX 300 nM, FK 30 nM
  Normalized OD (% STIM-C): 76.3 % STIM-C
[1]; Example 23, 200000 cells/well, DEX 300 nM, CsA 300 nM, BETA 300 nM, DEX (300 nM)+CsA (30 nM), BETA (300 nM)+CsA (300 nM)
  Normalized OD (% STIM-C): 87.2 % STIM-C
[1]; Example 24, 100000 cells/well, DEX 300 nM, CsA 300 nM, BETA 300 nM, DEX (300 nM)+CsA (30 nM), BETA (300 nM)+CsA (300 nM)
  Normalized OD (% STIM-C): 76.5 % STIM-C
[1]; Example 25, 50000 cells/well, DEX 300 nM, CsA 300 nM, BETA 300 nM, DEX (300 nM)+CsA (30 nM), BETA (300 nM)+CsA (300 nM)
  Normalized OD (% STIM-C): 82.2 % STIM-C
[1]; Example 27, 100000 cells/well, DEX 300 nM, CsA 300 nM
  Normalized OD (% STIM-C): 76.3 % STIM-C
[2]; Example 9, 200000 cells/well, DEX 300 nM, ASM 30 nM, BETA 300 nM
  Normalized OD (% STIM-C): 101.5 % STIM-C
[2]; Example 10, 100000 cells/well, DEX 300 nM, ASM 30 nM, BETA 300 nM
  Normalized OD (% STIM-C): 86.4 % STIM-C
[2]; Example 12, 100000 cells/well, DEX 300 nM, ASM 30 nM
  Normalized OD (% STIM-C): 105.7 % STIM-C
[2]; Example 26, 200000 cells/well, DEX 300 nM, CsA 300 nM, BETA 300 nM, DEX (300 nM)+CsA (30 nM), BETA (300 nM)+CsA (300 nM)
  Normalized OD (% STIM-C): 101.5 % STIM-C

## C[C@]12CCC(=O)C=C1CC[C@@H]1[C@@H]2[C@@H](O)C[C@@]2(C)[C@H]1CC[C@]2(O)C(=O)CO [HC, hydrocortisone]
[1]; [3]
  Normalized OD (% STIM-C): 106.8 % STIM-C
  inhibition at 10 µM: -7.4%
[1]; [4]
  Normalized OD (% STIM-C): 92.0 % STIM-C
  inhibition at 10 µM: < 17%
[1]; [5]
  Normalized OD (% STIM-C): 109.0 % STIM-C
  inhibition at 10 µM: -9.7%
[1]; [6]
  Normalized OD (% STIM-C): 106.8 % STIM-C
  inhibition at 10 µM: -7.4%
[1]; Example 14, 100000 cells/well, HC 10 μM, FK 30 nM, BETA 300 nM
  Normalized OD (% STIM-C): 92.0 % STIM-C
[1]; Example 19, 200000 cells/well, HC 10 μM, CsA 300 nM, BETA 300 nM, HC (10 μM)+CsA (30 nM), BETA (300 nM)+CsA (300 nM)
  Normalized OD (% STIM-C): 106.8 % STIM-C
[1]; Example 20, 100000 cells/well, HC 10 μM, CsA 300 nM, BETA 300 nM, HC (10 μM)+CsA (30 nM), BETA (300 nM)+CsA (300 nM)
  Normalized OD (% STIM-C): 92.0 % STIM-C
[1]; Example 21, 50000 cells/well, HC 10 μM, CsA 300 nM, BETA 300 nM, HC (10 μM)+CsA (30 nM), BETA (300 nM)+CsA (300 nM)
  Normalized OD (% STIM-C): 109.0 % STIM-C
[2]; Example 4, 200000 cells/well, HC 10 μM, ASM 30 nM, BETA 300 nM
  Normalized OD (% STIM-C): 89.0 % STIM-C
[2]; Example 5, 100000 cells/well, HC 10 μM, ASM 30 nM, BETA 300 nM
  Normalized OD (% STIM-C): 100.5 % STIM-C
[2]; Example 22, 200000 cells/well, HC 10 μM, CsA 300 nM, BETA 300 nM, HC (10 μM)+CsA (30 nM), BETA (300 nM)+CsA (300 nM)
  Normalized OD (% STIM-C): 89.0 % STIM-C

— patent publication US20060083754A1, “Pharmaceutical combinations comprising corticoids and immunosuppressants for treating corticoid- and/or calcineurin inhibitors-resistant diseases” (priority 2003, published 2006)
